Source: ChEMBL document CHEMBL1201862, “PubChem BioAssay data set” (2004)
Calls of active or inactive are those of the source.

Legend:
Cytochrome P450 2C19 = Cytochrome P450 2C19 (Homo sapiens, UniProt P33261); experiment: Cytochrome panel assay with activity outcomes. Panel member name: p450-cyp2c19 Compounds with AC50 equal or less than 10 uM are considered active; assay type: functional
Cytochrome P450 2D6 = Cytochrome P450 2D6 (Homo sapiens, UniProt P10635);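 note: CYP2D6 member of a cytochrome P450 panel assay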
[1] = target: Intestinal-type alkaline phosphatase (Mus musculus, UniProt P24822); experiment: PubChem AID 488874; assay type: functional
[2] = target: T1, RNA-binding protein pos-1 (Caenorhabditis elegans, UniProt G5EF15); experiment: inhibitors of POS-1/mex-3 RNA binding, dose response, biochemical, fluorescence polarization (AID 1964);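 note: purified POS-1 fused to maltose binding protein made in E. coli; potency of compounds blocking POS-1 binding to fluorescent RNA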
T1 sequence (G5EF15 whole entry): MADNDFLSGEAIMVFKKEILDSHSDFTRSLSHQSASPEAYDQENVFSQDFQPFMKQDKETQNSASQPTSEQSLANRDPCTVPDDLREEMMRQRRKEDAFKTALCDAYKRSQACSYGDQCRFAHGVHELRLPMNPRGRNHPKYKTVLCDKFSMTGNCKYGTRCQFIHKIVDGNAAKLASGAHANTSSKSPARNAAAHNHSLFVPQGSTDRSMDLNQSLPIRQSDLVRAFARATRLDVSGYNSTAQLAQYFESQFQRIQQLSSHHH

[3] = target: T2, Intestinal-type alkaline phosphatase (Homo sapiens, UniProt P09923); experiment: human intestinal alkaline phosphatase activators, dose response, biochemical, luminescence, uHTS hits (AID 463120); assay type: functional
[4] = target: T2, Intestinal-type alkaline phosphatase; experiment: human IAP activators, dose response, biochemical, luminescent, uHTS hits, set 2 (AID 488817); assay type: functional;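 note: potency of activators that raise enzyme activity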
[5] = target: T3, Alkaline phosphatase, tissue-nonspecific isozyme (Homo sapiens, UniProt P05186); experiment: TNAP enzyme activators, dose response, selectivity assay for human IAP activator project, biochemical, TNAP isozyme, human IAP uHTS hits (AID 488886); assay type: functional;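 note: potency of compounds raising TNAP activity as a selectivity check on IAP activators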
T3 sequence (P05186 whole entry): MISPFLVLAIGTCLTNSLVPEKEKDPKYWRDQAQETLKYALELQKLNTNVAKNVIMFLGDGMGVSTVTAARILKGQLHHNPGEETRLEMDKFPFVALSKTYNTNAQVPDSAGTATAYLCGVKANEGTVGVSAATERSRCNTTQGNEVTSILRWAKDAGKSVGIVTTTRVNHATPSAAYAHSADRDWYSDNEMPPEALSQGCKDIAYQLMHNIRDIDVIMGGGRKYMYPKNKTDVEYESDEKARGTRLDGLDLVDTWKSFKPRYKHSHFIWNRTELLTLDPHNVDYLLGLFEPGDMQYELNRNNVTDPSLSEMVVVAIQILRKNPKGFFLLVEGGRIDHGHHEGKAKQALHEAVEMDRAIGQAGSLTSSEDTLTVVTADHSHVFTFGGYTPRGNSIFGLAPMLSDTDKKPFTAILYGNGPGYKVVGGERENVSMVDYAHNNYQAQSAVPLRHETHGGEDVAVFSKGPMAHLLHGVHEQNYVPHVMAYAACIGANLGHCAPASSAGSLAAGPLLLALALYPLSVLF

[6] = target: T4, Zinc finger protein mex-5 (Caenorhabditis elegans, UniProt Q9XUB2); experiment: MEX-5/TCR-2 RNA interaction inhibitors, dose response, biochemical, C. elegans, fluorescence polarization (AID 1960)
T4 sequence (Q9XUB2 whole entry): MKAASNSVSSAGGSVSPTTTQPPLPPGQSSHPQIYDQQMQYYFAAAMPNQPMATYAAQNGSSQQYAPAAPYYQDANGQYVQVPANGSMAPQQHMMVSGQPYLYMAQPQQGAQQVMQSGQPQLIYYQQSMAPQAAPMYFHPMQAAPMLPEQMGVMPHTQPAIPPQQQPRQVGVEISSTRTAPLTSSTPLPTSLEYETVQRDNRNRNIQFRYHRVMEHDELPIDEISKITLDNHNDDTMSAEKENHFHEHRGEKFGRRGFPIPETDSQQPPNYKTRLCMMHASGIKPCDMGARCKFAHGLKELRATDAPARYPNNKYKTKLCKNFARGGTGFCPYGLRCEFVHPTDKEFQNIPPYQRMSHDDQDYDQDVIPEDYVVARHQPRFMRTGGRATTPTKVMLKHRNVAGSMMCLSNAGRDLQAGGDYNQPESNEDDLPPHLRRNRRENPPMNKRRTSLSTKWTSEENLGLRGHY

[7] = target: T5, Polyadenylate-binding protein 1 (Homo sapiens, UniProt P11940); experiment: PABP1 MLLE–PAM2 binding inhibitor potency, dose response, biochemical, fluorescence polarization, FITC-PAM2 peptide (AID 602259); assay type: functional; settings: read-out: IC50_Mean
Streptococcus = experiment: Group A Streptococcus viability loss, dose response, counter-screen for streptokinase expression inhibitor project, luminescence, BacTiterGlo (AID 1915); assay type: functional, organism-based;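 note: potency for reduction of bacterial viability or growth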
[8] = growth suppression of beta-catenin-knockout colon cells, dose response, cell-based, HCT116, human colon tumor (AID 1045); assay type: functional;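 note: HCT116 colon tumor cells with beta catenin knocked out; cells exposed to compound for 60 hours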
cells = assay type: functional
[9] = growth suppression of PTEN-null colon cells, dose response, cell-based, HCT116 PTEN knockout (AID 1047); assay type: functional;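 note: HCT116 colon tumor cells with PTEN knocked out; cells exposed to compound for 60 hours before readout; potency for loss of cell viability measured by luminescence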
Streptokinase A = target: T6, Streptokinase A (Streptococcus pyogenes serotype M1, UniProt P10520); experiment: S. pyogenes streptokinase expression inhibitors, potency, dose response, plasminogen activation absorbance, OD405 (AID 1914); assay type: functional, Streptococcus pyogenes M1 GAS;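 note: secreted streptokinase activity via plasminogen activation per viability signal from cell pellet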
T6 sequence (P10520 whole entry): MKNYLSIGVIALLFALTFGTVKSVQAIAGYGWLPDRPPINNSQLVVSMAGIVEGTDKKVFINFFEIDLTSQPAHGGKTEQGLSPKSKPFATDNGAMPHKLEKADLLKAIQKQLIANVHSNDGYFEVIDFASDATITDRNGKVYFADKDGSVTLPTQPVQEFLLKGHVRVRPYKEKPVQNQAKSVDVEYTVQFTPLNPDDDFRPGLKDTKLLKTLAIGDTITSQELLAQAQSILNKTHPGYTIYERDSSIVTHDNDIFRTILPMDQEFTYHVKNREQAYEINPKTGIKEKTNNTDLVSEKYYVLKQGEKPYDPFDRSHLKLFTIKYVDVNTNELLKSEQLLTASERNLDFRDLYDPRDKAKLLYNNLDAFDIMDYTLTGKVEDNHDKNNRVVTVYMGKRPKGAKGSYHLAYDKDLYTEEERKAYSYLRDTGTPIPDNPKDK

[10] = inhibitors of intracellular T. cruzi replication, confirmation, NIH3T3 host cells, beta-gal luminescence (AID 2044); assay type: functional, cell-based;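 note: intracellular parasites grown in NIH/3T3 mouse fibroblasts as host cells; luminescent beta-galactosidase reporter signal from transgenic T. cruzi replicating inside host cells; inhibitors lower the luminescence signal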
[11] = target: T7, Mannose-6-phosphate isomerase (Homo sapiens, UniProt P34949); experiment: PMI enzyme inhibitors, confirmation, biochemical, fluorescence intensity (AID 1535)
T7 sequence (P34949 whole entry): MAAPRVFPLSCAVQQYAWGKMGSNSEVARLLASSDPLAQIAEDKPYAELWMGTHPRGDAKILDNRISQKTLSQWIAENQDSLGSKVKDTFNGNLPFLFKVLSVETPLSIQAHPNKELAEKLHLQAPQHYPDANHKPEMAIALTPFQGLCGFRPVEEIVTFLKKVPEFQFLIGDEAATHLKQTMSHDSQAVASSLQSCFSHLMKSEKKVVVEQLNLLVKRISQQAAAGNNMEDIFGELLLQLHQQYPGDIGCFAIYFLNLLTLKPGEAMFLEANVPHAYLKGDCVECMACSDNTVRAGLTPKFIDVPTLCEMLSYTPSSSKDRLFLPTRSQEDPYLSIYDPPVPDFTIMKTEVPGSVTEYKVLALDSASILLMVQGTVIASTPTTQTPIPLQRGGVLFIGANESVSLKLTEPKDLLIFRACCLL

[12] = Vero E6 cell cytotoxicity, dose response, cytotoxicity control for non-replicating M. tuberculosis project, secondary assay (AID 492998); assay type: functional, VeroE6; settings: Vero C1008
[13] = target: T5, Polyadenylate-binding protein 1; experiment: PABP1 MLLE–PAM2 interaction inhibitors, dose response, miRNA deadenylation inhibitor project, biochemical, fluorescence polarization, Cy5-PAM2 peptide, secondary (AID 602260); assay type: functional; settings: read-out: IC50_Mean
Beta Lactamase = Beta Lactamase (Pseudomonas aeruginosa, UniProt Q932Y6); experiment: beta-lactamase reporter inhibitor potency, dose response, artefact control for NOD2-RIPK2 interaction inhibitor project, BLA reporter cells, FRET fluorescence (AID 651552); assay type: functional, cell-based
[14] = THP-1 cell cytotoxicity, dose response, cytotoxicity control for non-replicating M. tuberculosis project (AID 489025); assay type: functional
[15] = target: DNA dC->dU-editing enzyme APOBEC-3A (Homo sapiens, UniProt P31941); experiment: APOBEC3A DNA deaminase inhibitors, dose response, biochemical (AID 504722); assay type: functional
[16] = target: T7, Mannose-6-phosphate isomerase; experiment: Confirmation of compounds inhibiting phosphomannose isomerase (PMI) via a fluorescence intensity assay using a high concentration of mannose 6-phosphate. [Related pubchem assays (depositor defined):AID1209, AID1220, AID1545, AID1553, AID1620]
[17] = target: Eukaryotic translation initiation factor 4E (Mus musculus, UniProt P63073); experiment: eIF4E–eIF4G protein interaction inhibitors, dose response, biochemical, TR-FRET (AID 855); assay type: functional;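 note: potency for disrupting eIF4E binding to eIF4GI seen as loss of FRET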
[18] = target: T8, Mitochondrial peptide methionine sulfoxide reductase (Bos taurus, UniProt P54149); experiment: Absorbance-based biochemical high throughput dose response assay for activators of Methionine sulfoxide reductase A (MsrA).; assay type: functional
T8 sequence (P54149 whole entry): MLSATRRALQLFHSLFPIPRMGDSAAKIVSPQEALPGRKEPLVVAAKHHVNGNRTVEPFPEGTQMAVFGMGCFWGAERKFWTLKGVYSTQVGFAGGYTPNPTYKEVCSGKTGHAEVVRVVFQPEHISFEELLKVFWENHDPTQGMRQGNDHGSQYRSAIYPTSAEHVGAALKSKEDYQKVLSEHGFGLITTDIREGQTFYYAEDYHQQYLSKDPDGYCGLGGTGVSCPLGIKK

[19] = target: Heat shock protein HSP 90-alpha (Homo sapiens, UniProt P07900); assay type: functional, organism-based
Hexokinase = Hexokinase (Trypanosoma brucei, UniProt Q38C41); experiment: Confirmation assay for inhibitors of Trypanosoma brucei hexokinase 1-Analogue-first series. [Related pubchem assays (depositor defined):AID1430, AID1632, AID2516, AID2560, AID2579, AID2600, AID449725, AID492951]; assay type: functional
[20] = target: DNA dC->dU-editing enzyme APOBEC-3G (Homo sapiens, UniProt Q9HC16); experiment: Dose Response confirmation of small molecule APOBEC3G DNA Deaminase Inhibitors via a fluorescence-based single-stranded DNA deaminase assay. [Related pubchem assays (depositor defined):AID493012, AID493028]; assay type: functional
[21] = target: Phosphoethanolamine/phosphocholine phosphatase (Homo sapiens, UniProt Q8TCT1); experiment: SAR assay for compounds that inhibit PHOSPHO1. [Related pubchem assays (depositor defined):AID1545, AID1565, AID1574]
[22] = tested on: Streptococcus sp. 'group A'; experiment: growth inhibition of control SK(-) GAS strain, dose response, counter-screen for streptokinase expression inhibitor project, luminescence, kanamycin, BacTiterGlo, confirmation (AID 1900); assay type: functional, organism-based
[23] = target: Glucose-6-phosphate 1-dehydrogenase (Homo sapiens, UniProt P11413); experiment: human G6PD enzyme inhibitors, dose response, selectivity assay for P. falciparum G6PD inhibitor project, biochemical, fluorescence (AID 504792); assay type: functional
[24] = Fluorescence-based cell-based high throughput dose response assay for inhibitors of the interaction of nucleotide-binding oligomerization domain containing 2 (NOD2) and the receptor-interacting serine-threonine kinase 2 (RIPK2).; assay type: functional; settings: Homo sapiens

T2 sequence (P09923 whole entry): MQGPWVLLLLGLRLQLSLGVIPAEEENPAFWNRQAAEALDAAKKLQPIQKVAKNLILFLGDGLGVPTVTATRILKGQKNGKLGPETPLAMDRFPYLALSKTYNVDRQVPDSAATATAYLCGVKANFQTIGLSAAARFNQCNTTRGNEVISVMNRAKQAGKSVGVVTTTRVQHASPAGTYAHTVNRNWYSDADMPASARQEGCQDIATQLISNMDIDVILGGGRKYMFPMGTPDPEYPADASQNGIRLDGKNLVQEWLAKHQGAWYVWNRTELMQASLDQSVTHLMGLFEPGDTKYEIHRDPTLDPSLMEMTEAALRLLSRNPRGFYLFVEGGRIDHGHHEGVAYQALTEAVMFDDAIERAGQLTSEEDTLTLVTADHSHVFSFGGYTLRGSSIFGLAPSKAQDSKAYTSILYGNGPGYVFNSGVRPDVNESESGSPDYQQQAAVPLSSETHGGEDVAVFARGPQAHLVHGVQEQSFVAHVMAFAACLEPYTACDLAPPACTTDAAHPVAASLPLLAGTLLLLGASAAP
T5 sequence (P11940 whole entry): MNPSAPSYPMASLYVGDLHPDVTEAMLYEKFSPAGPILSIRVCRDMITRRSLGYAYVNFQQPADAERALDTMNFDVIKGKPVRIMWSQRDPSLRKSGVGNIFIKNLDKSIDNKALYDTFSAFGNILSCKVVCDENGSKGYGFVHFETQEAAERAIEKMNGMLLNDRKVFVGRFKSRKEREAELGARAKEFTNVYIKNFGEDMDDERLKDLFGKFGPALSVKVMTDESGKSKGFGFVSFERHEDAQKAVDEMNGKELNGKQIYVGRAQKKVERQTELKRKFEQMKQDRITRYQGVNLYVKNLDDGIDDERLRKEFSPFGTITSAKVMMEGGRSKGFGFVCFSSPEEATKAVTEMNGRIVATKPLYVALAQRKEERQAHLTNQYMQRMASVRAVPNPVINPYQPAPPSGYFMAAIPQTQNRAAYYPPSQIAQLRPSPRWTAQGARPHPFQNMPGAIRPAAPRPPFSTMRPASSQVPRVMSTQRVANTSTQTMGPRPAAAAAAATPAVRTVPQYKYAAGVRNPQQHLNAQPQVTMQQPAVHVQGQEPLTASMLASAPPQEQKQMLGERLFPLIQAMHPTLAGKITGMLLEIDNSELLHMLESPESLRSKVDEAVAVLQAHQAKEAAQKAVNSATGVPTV
Chain of Eukaryotic translation initiation factor 4E (P63073 whole entry): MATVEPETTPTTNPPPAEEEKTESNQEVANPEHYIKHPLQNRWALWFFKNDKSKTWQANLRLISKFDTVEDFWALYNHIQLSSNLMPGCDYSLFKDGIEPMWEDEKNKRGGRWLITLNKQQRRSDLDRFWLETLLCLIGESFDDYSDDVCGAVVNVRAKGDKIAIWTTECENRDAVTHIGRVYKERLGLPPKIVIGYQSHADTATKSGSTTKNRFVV
Chain of Cytochrome P450 2D6 (P10635 whole entry): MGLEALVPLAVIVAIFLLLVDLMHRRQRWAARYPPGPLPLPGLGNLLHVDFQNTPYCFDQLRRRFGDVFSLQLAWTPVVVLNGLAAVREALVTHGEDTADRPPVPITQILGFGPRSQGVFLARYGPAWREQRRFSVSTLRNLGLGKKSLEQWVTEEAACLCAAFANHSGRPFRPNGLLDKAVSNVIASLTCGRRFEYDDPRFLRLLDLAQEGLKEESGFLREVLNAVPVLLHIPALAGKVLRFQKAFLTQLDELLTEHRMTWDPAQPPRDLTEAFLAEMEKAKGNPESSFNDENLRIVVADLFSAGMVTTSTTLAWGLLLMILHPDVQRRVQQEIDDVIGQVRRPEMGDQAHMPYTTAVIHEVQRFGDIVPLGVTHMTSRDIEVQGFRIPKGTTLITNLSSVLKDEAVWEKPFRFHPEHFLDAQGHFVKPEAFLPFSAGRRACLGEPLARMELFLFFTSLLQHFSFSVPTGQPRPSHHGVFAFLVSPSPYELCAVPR
Chain of Intestinal-type alkaline phosphatase (Mus musculus, UniProt P24822) (P24822 whole entry, the tested form may be a part): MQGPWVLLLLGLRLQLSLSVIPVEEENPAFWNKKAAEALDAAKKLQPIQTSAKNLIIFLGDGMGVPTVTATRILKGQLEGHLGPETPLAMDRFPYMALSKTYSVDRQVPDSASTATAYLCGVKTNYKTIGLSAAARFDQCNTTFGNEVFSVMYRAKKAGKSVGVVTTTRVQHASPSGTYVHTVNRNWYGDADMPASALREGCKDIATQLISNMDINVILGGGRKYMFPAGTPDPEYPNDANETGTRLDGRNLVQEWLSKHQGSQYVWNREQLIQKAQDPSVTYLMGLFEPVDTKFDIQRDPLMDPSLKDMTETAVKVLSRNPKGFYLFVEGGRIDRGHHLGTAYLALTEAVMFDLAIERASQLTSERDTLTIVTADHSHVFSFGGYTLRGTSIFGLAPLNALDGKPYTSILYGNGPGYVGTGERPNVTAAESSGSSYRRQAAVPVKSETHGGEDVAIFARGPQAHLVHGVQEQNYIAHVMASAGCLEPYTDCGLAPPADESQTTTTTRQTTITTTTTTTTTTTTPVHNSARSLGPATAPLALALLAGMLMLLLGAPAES
Chain of DNA dC->dU-editing enzyme APOBEC-3A (P31941 whole entry): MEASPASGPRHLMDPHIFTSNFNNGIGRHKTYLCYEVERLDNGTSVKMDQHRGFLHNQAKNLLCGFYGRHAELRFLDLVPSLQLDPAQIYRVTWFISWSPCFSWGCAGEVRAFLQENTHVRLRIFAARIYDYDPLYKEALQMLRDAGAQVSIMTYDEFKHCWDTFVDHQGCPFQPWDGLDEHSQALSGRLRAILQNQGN
Chain of Phosphoethanolamine/phosphocholine phosphatase (Q8TCT1 whole entry): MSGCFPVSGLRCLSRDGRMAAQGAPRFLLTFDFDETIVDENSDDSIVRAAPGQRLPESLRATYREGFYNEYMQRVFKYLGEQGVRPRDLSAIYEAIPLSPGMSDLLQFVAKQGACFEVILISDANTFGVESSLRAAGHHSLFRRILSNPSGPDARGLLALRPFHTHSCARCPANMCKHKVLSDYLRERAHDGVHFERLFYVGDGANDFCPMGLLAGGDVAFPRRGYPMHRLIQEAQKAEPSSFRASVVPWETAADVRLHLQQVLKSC
Chain of Cytochrome P450 2C19 (P33261 whole entry): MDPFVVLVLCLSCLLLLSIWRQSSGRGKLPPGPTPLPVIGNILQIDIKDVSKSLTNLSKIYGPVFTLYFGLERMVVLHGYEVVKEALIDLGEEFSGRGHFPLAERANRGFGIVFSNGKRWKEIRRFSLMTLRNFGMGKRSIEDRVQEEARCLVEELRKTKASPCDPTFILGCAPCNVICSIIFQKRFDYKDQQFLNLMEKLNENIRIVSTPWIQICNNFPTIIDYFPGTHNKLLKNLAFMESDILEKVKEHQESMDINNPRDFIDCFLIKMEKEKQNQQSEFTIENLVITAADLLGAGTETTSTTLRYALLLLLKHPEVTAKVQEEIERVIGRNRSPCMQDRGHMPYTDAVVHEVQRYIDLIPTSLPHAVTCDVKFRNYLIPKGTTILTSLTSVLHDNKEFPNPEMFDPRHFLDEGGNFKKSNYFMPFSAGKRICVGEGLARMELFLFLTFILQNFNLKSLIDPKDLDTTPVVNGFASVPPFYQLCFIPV
Chain of Glucose-6-phosphate 1-dehydrogenase (P11413 whole entry, the tested form may be a part): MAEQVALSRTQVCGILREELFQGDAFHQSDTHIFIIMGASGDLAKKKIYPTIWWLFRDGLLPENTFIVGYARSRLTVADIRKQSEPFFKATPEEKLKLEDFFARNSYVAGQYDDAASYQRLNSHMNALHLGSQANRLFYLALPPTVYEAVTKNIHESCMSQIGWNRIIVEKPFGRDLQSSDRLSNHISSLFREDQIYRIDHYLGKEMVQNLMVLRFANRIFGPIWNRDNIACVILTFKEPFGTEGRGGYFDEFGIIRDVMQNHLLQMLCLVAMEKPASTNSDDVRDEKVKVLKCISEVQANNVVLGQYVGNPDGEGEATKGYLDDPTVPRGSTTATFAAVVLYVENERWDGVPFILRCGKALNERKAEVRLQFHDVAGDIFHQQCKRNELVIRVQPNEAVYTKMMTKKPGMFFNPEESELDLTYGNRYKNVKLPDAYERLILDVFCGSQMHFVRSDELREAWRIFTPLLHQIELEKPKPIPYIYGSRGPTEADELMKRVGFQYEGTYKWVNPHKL
Chain of DNA dC->dU-editing enzyme APOBEC-3G (Q9HC16 whole entry): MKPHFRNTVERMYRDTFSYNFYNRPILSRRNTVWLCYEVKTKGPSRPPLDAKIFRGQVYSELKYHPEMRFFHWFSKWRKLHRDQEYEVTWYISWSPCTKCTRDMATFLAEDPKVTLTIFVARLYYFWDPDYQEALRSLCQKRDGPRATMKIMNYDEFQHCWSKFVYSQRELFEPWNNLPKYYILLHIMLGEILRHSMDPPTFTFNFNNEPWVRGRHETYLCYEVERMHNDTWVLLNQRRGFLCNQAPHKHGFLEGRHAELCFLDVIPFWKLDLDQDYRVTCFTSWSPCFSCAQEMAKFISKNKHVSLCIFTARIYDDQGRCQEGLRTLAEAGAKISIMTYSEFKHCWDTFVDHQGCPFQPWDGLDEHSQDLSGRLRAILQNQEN
Chain of Hexokinase (Q38C41 whole entry): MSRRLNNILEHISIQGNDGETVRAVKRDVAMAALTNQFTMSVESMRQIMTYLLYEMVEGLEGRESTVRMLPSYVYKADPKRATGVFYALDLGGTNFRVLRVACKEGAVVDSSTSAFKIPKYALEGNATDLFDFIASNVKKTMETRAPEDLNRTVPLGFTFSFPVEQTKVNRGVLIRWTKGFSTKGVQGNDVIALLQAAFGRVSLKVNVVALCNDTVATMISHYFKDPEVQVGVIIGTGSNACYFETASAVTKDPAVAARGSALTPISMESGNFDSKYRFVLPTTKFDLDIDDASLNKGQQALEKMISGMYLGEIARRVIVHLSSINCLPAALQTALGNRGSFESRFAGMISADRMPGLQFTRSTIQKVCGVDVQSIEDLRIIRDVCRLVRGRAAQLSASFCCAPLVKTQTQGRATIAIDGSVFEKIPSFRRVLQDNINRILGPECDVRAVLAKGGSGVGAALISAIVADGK

Cc1ccc(Cl)cc1-n1c(=O)cc(N2CC(C)OC(C)C2)[nH]c1=O (stereo unspecified)
inconclusive: AC50 (Cytochrome P450 2C19) | AC50 (Cytochrome P450 2D6)

CCOC(=O)c1cnc(-n2nc(C)cc2C)nc1NNc1nc(C)cc(C)n1
active: IC50 [1] 66 µM | EC50 [2] 65.5 µM | EC50 [3] 8.43 µM | EC50 [4] 21.3 µM | EC50 [5] 21.4 µM
inconclusive: EC50 [6] > 300 µM

O=c1c2ccccc2sn1-c1ccccc1
inactive: IC50 [7] > 66 µM | IC50 [13] > 66 µM | IC50 (Beta Lactamase) 16.6 µM | IC50 [15] > 100 µM | EC50 [18] 79.3 µM
> 150 µM (not active): EC50 (Streptokinase A)
active: EC50 (Streptococcus) 4.17 µM | EC50 [8] 22.6 µM | IC50 (cells) 15.7 µM | EC50 [9] 41.1 µM | EC50 [10] 0.227 µM | IC50 [11] 6.65 µM | CC50 [12] 13.4 µM | CC50 [14] 10.9 µM | IC50 [16] 21 µM | IC50 [17] 20.1 µM | AC50 [19] 18.7 µM | IC50 (Hexokinase) 1.11 µM | IC50 [20] 6.4 µM | IC50 [21] 0.941 µM | EC50 [22] 0.888 µM | IC50 [23] 8.87 µM | IC50 [24] 4 µM
